The test system of assay [1] is Uromyces phaseoli. Nature of the assay: whole plant or invertebrate. To be noted: foliar, read-out: Percent Disease Control, foliar, bean rust.
The test system of assay [2] is Pyricularia oryzae. The assay is classed as cell-based. The note with it: PO, 48 hours.
The subject of assay [3] is Fusarium solani. In words: Mycelial growth test. In kind it is cell-based. To be noted: Fusarium solani, 72 h; for inhibition at 5 ppm / inhibition at 10 ppm / inhibition at 20 ppm: PS, 72 hours, read-out: Percent Fungus Growth Inhibition; for inhibition at 40 ppm: read-out: Percent Fungus Growth Inhibition, PS, 40 ppm, 72 hours.
Assay [4] has as its system Uromyces phaseoli. Nature of the assay: whole plant or invertebrate. The note with it: foliar, 24 h, read-out: Percent Disease Control, curative, bean rust.

Like-named read-outs stand apart in the source and are kept apart here.

As for `O=c1c(Cl)nsnc1Oc1c(Cl)cc(Cl)cc1Cl` [Compound 30, 3-chloro-5-(2,4,6-trichlorophenoxy)-4H--1,2,6-thiadiazin-4-one], the pest or weed control at 150 ppm worked out at 100% in assay [1] and 0% in assay [4]. In addition, the “Spore Germination Rating” value is reported as 3 (60-80) in assay [2] (1.0 ppm), 0 (0-10) in assay [2] (2.5 ppm), 0 (0-10) in assay [2] (10 ppm) and 0 (0-10) in assay [2] (40 ppm). In addition, in assay [3], the inhibition (usually the share of the control response that was lost under treatment) at 5 ppm was determined as 52%. The inhibition at 10 ppm in assay [3] turned out to be 81%. The inhibition at 20 ppm in assay [3] stood at 90%. Also, the inhibition at 40 ppm in assay [3] is 100%.
As for `O=c1c(Cl)nsnc1Oc1c(Cl)c(Cl)c(Cl)c(Cl)c1Cl` [Compound 31, 3-chloro-5-(pentachlorophenoxy)-4H--1,2,6-thiadiazine-4-one], the pest or weed control at 150 ppm in assay [1] and in assay [4] was 0% in each case. Besides, the “Spore Germination Rating” value in assay [2] (1.0 ppm), in assay [2] (2.5 ppm), in assay [2] (10 ppm) and in assay [2] (40 ppm) was 0 (0-10) each time. The inhibition at 5 ppm in assay [3] was found to be 42%. Further, the inhibition at 10 ppm in assay [3] turned out to be 42%. The inhibition at 20 ppm in assay [3] worked out at 58%. Moreover, the inhibition at 40 ppm in assay [3] was found to be 58%.
For `O=c1c(Cl)nsnc1Oc1cccc2ccccc12` [Compound 32, 3-chloro-5(1-naphthoxy)-4H-1,2,6-thiadiazin-4-one], the results for the pest or weed control at 150 ppm in assay [1] and in assay [4] were 90% and 0%, respectively. The “Spore Germination Rating” value in assay [2] (1.0 ppm) is on record as 2 (40-60); in assay [2] (2.5 ppm), 0 (0-10); in assay [2] (10 ppm) it was 0 (0-10); in assay [2] (40 ppm), 0 (0-10). The inhibition at 5 ppm in assay [3] stood at 100%. For the same molecule, in assay [3], the inhibition at 10 ppm stood at 100%. Besides, in assay [3], the inhibition at 20 ppm came out at 100%. Besides, the inhibition at 40 ppm in assay [3] worked out at 100%.
Take `O=c1c(Cl)nsnc1Oc1ccccc1Br` [Compound 34, 3-chloro-5-(2-bromophenoxy)-4H-1,2,6,-thiadiazin-4-one]: the pest or weed control at 150 ppm came to 85% in assay [1] and 0% in assay [4]. The “Spore Germination Rating” value in assay [2] (1.0 ppm) is recorded as 1 (10-40); in assay [2] (2.5 ppm), 0 (0-10); in assay [2] (10 ppm), 0 (0-10); in assay [2] (40 ppm), 0 (0-10). Besides, the inhibition at 5 ppm in assay [3] came to 13%. For the same molecule, in assay [3], the inhibition at 10 ppm stood at 43%. In addition, the inhibition at 20 ppm in assay [3] amounted to 50%. The inhibition at 40 ppm in assay [3] stood at 100%.
As to `O=c1c(Cl)nsnc1Oc1ccc(O)cc1` [Compound 35, 3-chloro-5-(4-hydroxyphenoxy)-4H-1,2,6-thiadiazin-4-one], the pest or weed control at 150 ppm in assay [1] was determined as 100%; in assay [4] it was 0%. For the same molecule, the “Spore Germination Rating” value in assay [2] (1.0 ppm) is 2 (40-60); in assay [2] (2.5 ppm), 0 (0-10); in assay [2] (10 ppm), 0 (0-10); in assay [2] (40 ppm) it was 0 (0-10). For the same molecule, the inhibition at 5 ppm in assay [3] turned out to be 30%. Further, the inhibition at 10 ppm in assay [3] turned out to be 35%. Moreover, the inhibition at 20 ppm in assay [3] stood at 60%. Also, the inhibition at 40 ppm in assay [3] was 80%.
Take `O=C(Nc1ccccc1)Oc1ccc(Oc2nsnc(Cl)c2=O)cc1` [Compound 37, 3-chloro-5-[4-(phenylaminocarbonyloxy)phenoxy]-4H-1,2,6,-thiadiazin-4-one]: the pest or weed control at 150 ppm in assay [1] was 100%; in assay [4], 0%. Also, the “Spore Germination Rating” value in assay [2] (1.0 ppm) is 4 (80-100); in assay [2] (2.5 ppm), 3 (60-80); in assay [2] (10 ppm) it was 0 (0-10); in assay [2] (40 ppm), 2 (40-60). Besides, the inhibition at 5 ppm in assay [3] is 26%. Also, in assay [3], the inhibition at 10 ppm stood at 16%. Moreover, the inhibition at 20 ppm in assay [3] is 26%. In assay [3], the inhibition at 40 ppm came to 42%.
`O=C(OCc1ccccc1)Oc1ccc(Oc2nsnc(Cl)c2=O)cc1` [Compound 38, 3-chloro-5-[4-(phenylmethoxycarbonyloxy)phenoxyl]-4H-1,2,6-thiadiazin-4-one]: the pest or weed control at 150 ppm in assay [1] came out at 0%; in assay [4], 100%. For the same molecule, the “Spore Germination Rating” value was 4 (80-100) in assay [2] (1.0 ppm), 3 (60-80) in assay [2] (2.5 ppm), 2 (40-60) in assay [2] (10 ppm) and 2 (40-60) in assay [2] (40 ppm). Further, in assay [3], the inhibition at 5 ppm was 10%. The inhibition at 10 ppm in assay [3] was determined as 20%. Further, in assay [3], the inhibition at 20 ppm was 30%. The inhibition at 40 ppm in assay [3] was 35%.
Take `CSc1ccc(Oc2nsnc(Cl)c2=O)cc1` [Compound 39, 3-chloro-5-[(4-methylthio)phenoxy]-4H-1,2,6,-thiadiazin-4-one]: the pest or weed control at 150 ppm in assay [1] came out at 98%; in assay [4] it was 0%. For the same molecule, the “Spore Germination Rating” value in assay [2] (1.0 ppm) is 2 (40-60); in assay [2] (2.5 ppm) it was 1 (10-40); in assay [2] (10 ppm) it was 1 (10-40); in assay [2] (40 ppm), 0 (0-10). In assay [3], the inhibition at 5 ppm amounted to 42%. Moreover, the inhibition at 10 ppm in assay [3] stood at 79%. Moreover, the inhibition at 20 ppm in assay [3] was 68%. For the same molecule, in assay [3], the inhibition at 40 ppm worked out at 42%.
As to `C[S+]([O-])c1ccc(Oc2nsnc(Cl)c2=O)cc1` (centres unmarked) [Compound 40, 3-chloro-5-[(4-methylsulfinyl)phenoxy]-4H-1,2,6,-thiadiazin-4-one], the results for the pest or weed control at 150 ppm in assay [1] and in assay [4] were 98% and 0%, respectively. Further, the “Spore Germination Rating” value was 4 (80-100) in assay [2] (1.0 ppm), 3 (60-80) in assay [2] (2.5 ppm), 4 (80-100) in assay [2] (10 ppm) and 1 (10-40) in assay [2] (40 ppm). Besides, the inhibition at 5 ppm in assay [3] was 5%. Moreover, the inhibition at 10 ppm in assay [3] came out at 16%. In assay [3], the inhibition at 20 ppm was 26%. Also, in assay [3], the inhibition at 40 ppm came to 53%.
Turning to `CS(=O)(=O)c1ccc(Oc2nsnc(Cl)c2=O)cc1` [Compound 41, 3-chloro-5-[(4-methylsulfonyl)phenoxy]-4H--1,2,6-thiadiazin-4-one], the pest or weed control at 150 ppm in assay [1] and in assay [4] was 0% in each case. For the same molecule, the “Spore Germination Rating” value in assay [2] (1.0 ppm) is on record as 4 (80-100); in assay [2] (2.5 ppm), 3 (60-80); in assay [2] (10 ppm), 0 (0-10); in assay [2] (40 ppm) it was 0 (0-10). Besides, in assay [3], the inhibition at 5 ppm stood at 16%. The inhibition at 10 ppm in assay [3] was 16%. For the same molecule, the inhibition at 20 ppm in assay [3] was determined as 42%. Besides, in assay [3], the inhibition at 40 ppm turned out to be 68%.
Turning to `CC(=O)Nc1cccc(Oc2nsnc(Cl)c2=O)c1` [Compound 42, 3-[(3-N--acetylamino)-phenoxy]-5-chloro-4H--1,2,6-thiadiazin-4-one], the pest or weed control at 150 ppm came to 100% in assay [1] and 0% in assay [4]. The “Spore Germination Rating” value in assay [2] (1.0 ppm) is listed as 4 (80-100); in assay [2] (2.5 ppm) it was 4 (80-100); in assay [2] (10 ppm) it was 3 (60-80); in assay [2] (40 ppm) it was 0 (0-10). For the same molecule, the inhibition at 5 ppm in assay [3] came to 31%. Moreover, the inhibition at 10 ppm in assay [3] was found to be 19%. Besides, in assay [3], the inhibition at 20 ppm was 13%. For the same molecule, in assay [3], the inhibition at 40 ppm amounted to 38%.
`CC(=O)Nc1ccccc1Oc1nsnc(Cl)c1=O` [Compound 43, 3-[(2-acetylamino)-phenoxy]-5-chloro-4H--1,2,6-thiadiazin-4-one]: the pest or weed control at 150 ppm in assay [1] and in assay [4] was 0% in each case. Also, the “Spore Germination Rating” value is 4 (80-100) in assay [2] (1.0 ppm), 4 (80-100) in assay [2] (2.5 ppm), 4 (80-100) in assay [2] (10 ppm) and 1 (10-40) in assay [2] (40 ppm). Moreover, the inhibition at 5 ppm in assay [3] was determined as 0%. Moreover, the inhibition at 10 ppm in assay [3] was found to be 0%. Further, the inhibition at 20 ppm in assay [3] came to 0%. For the same molecule, in assay [3], the inhibition at 40 ppm came out at 0%.
On to `O=c1c(Cl)nsnc1Oc1cccc(C(F)(F)F)c1` [Compound 44, 3-chloro-5-[(3-trifluoromethyl)phenoxy]-4H--1,2,6-thiadiazin-4-one], for which the figures for the pest or weed control at 150 ppm in assay [1] and in assay [4] were 100% and 0%, respectively. In addition, the “Spore Germination Rating” value is on record as 1 (10-40) in assay [2] (1.0 ppm), 0 (0-10) in assay [2] (2.5 ppm), 0 (0-10) in assay [2] (10 ppm) and 0 (0-10) in assay [2] (40 ppm). Besides, the inhibition at 5 ppm in assay [3] is 100%. Moreover, in assay [3], the inhibition at 10 ppm is 100%. Moreover, the inhibition at 20 ppm in assay [3] amounted to 100%. In assay [3], the inhibition at 40 ppm is 100%.
On to `O=C(O)Cc1ccccc1Oc1nsnc(Cl)c1=O` [Compound 45, 3-(2-carboxymethylphenoxy)-5-chloro-4H--1,2,6-thiadiazin-4-one], for which the pest or weed control at 150 ppm is 95% in assay [1] and 0% in assay [4]. The “Spore Germination Rating” value is given as 4 (80-100) in assay [2] (1.0 ppm), 4 (80-100) in assay [2] (2.5 ppm), 4 (80-100) in assay [2] (10 ppm) and 1 (10-40) in assay [2] (40 ppm). In addition, the inhibition at 5 ppm in assay [3] came to 0%. In addition, the inhibition at 10 ppm in assay [3] is 0%. The inhibition at 20 ppm in assay [3] stood at 6%. Further, the inhibition at 40 ppm in assay [3] is 31%.
Take `N#CCc1ccc(Oc2nsnc(Cl)c2=O)cc1` [Compound 46, 3-chloro-5-[(4-cyanomethyl)-phenoxy]4H--1,2,6-thiadiazin-4-one]: the pest or weed control at 150 ppm in assay [1] and in assay [4] was 0% each time. Besides, the “Spore Germination Rating” value in assay [2] (1.0 ppm), in assay [2] (2.5 ppm), in assay [2] (10 ppm) and in assay [2] (40 ppm) was 0 (0-10) in each case. Besides, the inhibition at 5 ppm in assay [3] came out at 35%. For the same molecule, the inhibition at 10 ppm in assay [3] amounted to 70%. In addition, the inhibition at 20 ppm in assay [3] is 90%. For the same molecule, the inhibition at 40 ppm in assay [3] was determined as 100%.
For the molecule `CC(=O)c1ccc(Oc2nsnc(Cl)c2=O)cc1` [Compound 47, 3-(4-acetylphenoxy)-5-chloro-4H--1,2,6-thiadiazin-4-one], the pest or weed control at 150 ppm in assay [1] and in assay [4] was 0% throughout. In addition, the “Spore Germination Rating” value is reported as 1 (10-40) in assay [2] (1.0 ppm), 0 (0-10) in assay [2] (2.5 ppm), 0 (0-10) in assay [2] (10 ppm) and 0 (0-10) in assay [2] (40 ppm). Moreover, the inhibition at 5 ppm in assay [3] was found to be 38%. The inhibition at 10 ppm in assay [3] amounted to 50%. For the same molecule, the inhibition at 20 ppm in assay [3] turned out to be 100%. In assay [3], the inhibition at 40 ppm was determined as 100%.
For `CC(=O)c1cccc(Oc2nsnc(Cl)c2=O)c1` [Compound 48, 3-(3-acetylphenoxy)-5-chloro-4H--1,2,6-thiadiazin-4-one], the pest or weed control at 150 ppm in assay [1] amounted to 100%; in assay [4] it was 0%. In addition, the “Spore Germination Rating” value in assay [2] (1.0 ppm) is given as 3 (60-80); in assay [2] (2.5 ppm) it was 1 (10-40); in assay [2] (10 ppm) it was 0 (0-10); in assay [2] (40 ppm), 0 (0-10). In addition, the inhibition at 5 ppm in assay [3] amounted to 38%. In addition, in assay [3], the inhibition at 10 ppm is 50%. Moreover, the inhibition at 20 ppm in assay [3] turned out to be 100%. In addition, the inhibition at 40 ppm in assay [3] stood at 100%.
